Reference: US9284309B2, “Di- and tri-heteroaryl derivatives as inhibitors of protein aggregation” (Neuropore Therapies, Inc., priority 2012, dated 2016)

Target: T1, α-synuclein (Homo sapiens, UniProt P37840)
T1 construct: expressed in transfected cells
Experiment: calcein assay of membrane integrity (reversal of α-synuclein-mediated disruption of cell membranes, FLIPR)
Format: cell-based
Conditions: 0.01 μM test compound; neuronal cells infected with LV-α-synuclein, 24 h treatment in serum free media, calcein retention
Protocol: (b) Neuronal Activity/Integrity. Toxic aggregates of α-synuclein disrupt the integrity of cell membranes. The disruptive effect of α-synuclein and the ability of test compounds to reverse the α-synuclein-mediated disruption of cell membranes are measured using calcein. Calcein is a fluorescent marker that is retained in healthy cells but is not retained in cells with diminished cellular integrity. To ascertain the effects on neuronal activity, cells are infected with LV-α-synuclein for 24 h, treated with test compound at a range of concentrations, for example 0.01-10 μM, for 24 h in serum free media, loaded with Fluo-4 or calcein, and analyzed by FLIPR assay to determine Ca^2+ and calcein levels. […] Test compounds are evaluated for the ability to restore concentrations of Ca^2+ to those in cells not infected with LV-α-synuclein. […] Test compounds are evaluated, in a concentration-dependent manner, for their ability to reverse the effect of α-synuclein on levels of calcein.

SMILES | Percent reversal of α-Syn mediated disruption of cell integrity [%]
CCCCn1nnc(C(Cc2c[nH]c3ccccc23)NC(=O)c2cnc(N3CCN(C)CC3)s2)n1 (stereo not drawn) [Example 5, N-(1-(2-butyl-2H-tetrazol-5-yl)-2-(1H-indol-3-yl)ethyl)-2-(4-methylpiperazin-1-yl)thiazole-5-carboxamide] | 110
CCc1csc(C(Cc2c[nH]c3ccccc23)NC(=O)c2cnc(N3CCN(C)CC3)s2)n1 (stereo not drawn) [Example 6, N-(1-(4-ethylthiazol-2-yl)-2-(1H-indol-3-yl)ethyl)-2-(4-methylpiperazin-1-yl)thiazole-5-carboxamide] | 137
CCCCNC(=N)C(Cc1c[nH]c2ccccc12)NC(=O)c1cnc(N2CCN(C)CC2)s1 (stereo not drawn) [Example 7, N-(1-(butylamino)-1-imino-3-(1H-indol-3-yl)propan-2-yl)-2-(4-methylpiperazin-1-yl)thiazole-5-carboxamide] | 189

Next, values leading:

Percent reversal of α-Syn mediated disruption of cell integrity [%] | SMILES
135 | CCCCNNC(=O)C(Cc1c[nH]c2ccccc12)NC(=O)c1cnc(N2CCN(C)CC2)s1 (stereo not drawn) [Example 8, N-(1-(2-butylhydrazinyl)-3-(1H-indol-3-yl)-1-oxopropan-2-yl)-2-(4-methylpiperazin-1-yl)thiazole-5-carboxamide]
187 | CCCc1nnc(C(Cc2c[nH]c3ccccc23)NC(=O)c2cnc(N3CCN(C)CC3)s2)s1 (stereo not drawn) [Example 9, N-(2-(1H-indol-3-yl)-1-(5-propyl-1,3,4-thiadiazol-2-yl)ethyl)-2-(4-methylpiperazin-1-yl)thiazole-5-carboxamide]
115 | CCCc1nnc(C(Cc2c[nH]c3ccccc23)NC(=O)c2cnc(N3CCN(C)CC3)s2)[nH]1 (stereo not drawn) [Example 10, N-(2-(1H-indol-3-yl)-1-(5-propyl-4H-1,2,4-triazol-3-yl)ethyl)-2-(4-methylpiperazin-1-yl)thiazole-5-carboxamide]
